Laboratory results from patent publication US4975433A, “Aminomethyl derivatives of biologically active substances and enhanced delivery thereof across topical membranes” (priority 1989, dated 1990).
Values after ≈ are worked out from the molar mass of the structure shown. Values joined by “and” are separate entries in the source; they are usually repeats but may differ in a detail not shown here. Equal entries are not always repeated. Where two headings read alike, the source gives them in different places. Marks after values point to notes of the source that are not given here.

Columns and labels:
[1] = cited from earlier work
[2] = delivery of 5-FU, previous data of Mollgaard et al; type: in vitro ADME, human
Method: The diffusion cell data previously reported for the delivery of 5-FU from PG (Mollgaard et al, supra), were analyzed and a flux of 7.8×10^-4 mg/cm^2.hr with a lag time of 17 hr was calculated. […] […]. […] Thus, the present study of delivery of 5-FU appears to be consistent with the observations of Mollgaard et al, supra.
. When the data for the diffusion of the best prodrug of 5-FU (1-butyryloxymethylderivative) described in Mollgaard et al, supra, were used to calculate a flux for that prodrug, a flux of 17.2×10^-4 mg/cm^2.hr was obtained. […]

[3] = cited from earlier work; remark: listed apart in the source
[4] = delivery of theophylline, previous study of Sloan et al; conditions: from flux of previous study
[5] = hydrolysis / stability of adenine and cytosine adducts followed by UV (Example 1); type: physicochemical; conditions: water, dilute aqueous solution, about 1×10^-4 mole/l, read-out: t1/2 of hydrolysis (converted)
Excerpt: The methanol UV spectra of the adducts of cytosine and adenine were stable for up to 2 hr. The water UV spectrum of the mono-adduct of adenine 1b was essentially identical with adenine itself under the same conditions. […] The rates of hydrolysis of three of the adducts (1d, 1e and 2d) were followed by UV at about 1×10^-4 mole/1 by following the decrease in intensity of their respective UV max with time. Spectra were monitored until stable spectra were produced which in all cases were essentially identical with the parent purine or pyrimidine. Plots of At-At.infin. versus time were used to determine t 1/2. The hydrolyses of the adducts were also followed by ^1 H NMR spectroscopy. Solutions (DMSO-d6) of the adducts at about 30 mg/ml, were diluted with D2 O in a dropwise fashion until a 1:1 ratio of the two solvents was reached. Integrations (5 times) of the spectra were taken after each addition of D2 O. Comparison of the average of the integrations of the N--CH2 --N absorptions and the integrations of the C2 --H, C8 --H, C5 --H or C6 --H absorptions was used to quantitate the amount of decomposition.

[6] = lipid and aqueous solubilities of 5-FC and its derivatives; type: physicochemical; conditions: for solubility at 48 h: isopropyl myristate, organic solvent or mixture, read-out: Solubility, IPM
[7] = physchem; conditions: organic solvent or mixture
[8] = water, equilibrated three hours, 180 min; cited from earlier work
[9] = lipid and aqueous solubilities of 5-IDC and its prodrugs; type: physicochemical; conditions: for Solubility, IPM / solubility at 48 h: isopropyl myristate; for solubility: pH 5.5, water, apparent; for solubility at 48 h: organic solvent or mixture, read-out: Solubility, IPM
Method: The approximate aqueous solubilities were determined by the addition of 100 mg of solid to 1 ml distilled water (pH 5.5). Water was added until all the solid dissolved.
The lipid solubilities of 5-iodo-2'-deoxycytidine and its N-Mannich base prodrugs were determined in isopropyl myristate. Three suspensions of the drug or prodrugs were stirred for 48 hours and then filtered. The filtrates were then diluted with either methanol, for the parent drug or dry acetonitrile, for the N-Mannich base prodrugs. The concentration of compound in solution was determined by monitoring the UV absorption at 294 nm (ε=5.79×10^3 1/mole) for 5-IDC, 333 nm (ε=2.46×10^4) for the formamidine derivative and 296 nm for the derivatives. The aqueous solubilities were obtained as described above.

[10] = solubility of 5-iodo-2'-deoxycytidine in various vehicles; type: physicochemical; conditions: for solubility: organic solvent or mixture
[11] = flux of theophylline in PG after first application of 5-IDC or prodrug (second application); type: in vitro ADME, hairless mice
Method: A suspension of theophylline in PG (Th/PG; 0.5 ml, 0.4M) was then applied to each diffusion cell. […] This phase of the diffusion cell experiment is labelled the second application.
The slopes for each phase of the plotted lines were obtained by linear regression analysis; the slopes were then divided by the surface area of the diffusion cells (4.9 cm^2) to obtain a value for flux (J) in mg/cm^2 /h. The reported fluxes are the average flux for the three cells.

[12] = phosphate buffer, pH 7.1
[13] = skins leached 120 hours, no methanol wash
Method: After this last sampling of the receptor phase (amount left in skin), the receptor phase was again changed. […] The cumulative amount of theophylline in the receptor phase was calculated as described above. This phase of the diffusion cell studies is termed the second application.
Several control studies were also performed. […] This was the baseline for the second application. […] Theophylline in PG was then applied to assess the effect of the methanol wash (used to remove the remaining donor phase from the first application) on the skin's permeability. […] The receptor phase was changed and a suspension of Th in PG was added as before.
The slopes for each phase of the plotted lines were obtained by linear regression analysis (r>0.990); the slopes were then divided by the surface area of the diffusion cells (4.9 cm^2) to obtain a value for flux (J) in mg/cm^2 /h. The reported fluxes are the average flux of the three diffusion cells.

[14] = cited from earlier work; remark: listed apart in the source
[15] = solubilities of prodrugs and parent drugs in selected solvents (Example 8); conditions: Solubility, suspensions sonicated for 3 hr
[16] = hydrolysis of 5-IDC derivatives in pH 7.1 buffer; type: physicochemical; conditions: 24°, read-out: half-life (t1/2) of hydrolysis
Method: The hydrolysis of the prodrugs in pH 7.1 buffer (0.05M,=0.15) was monitored by UV spectroscopy at 294 nm, by measuring the appearance of 5-IDC. A plot of log (At -A.infin.) versus time was linear so first-order reaction kinetics were assumed. Each hydrolysis was performed in triplicate at a constant temperature of 24.0°±0.1° and the half-lives and rates of hydrolysis were obtained using the Guggenheim method. Stock solutions of the prodrugs were made in dry acetonitrile, and 0.1 ml of the solution was added to 3 ml of buffer in a cuvette.

For `CCCC(=O)OCn1cc(F)c(=O)[nH]c1=O` [1-butyryloxymethylderivative], the flux ([1]; not told) is listed as 17.2×10^-4 mg/cm^2.hr and the “times better than 5-FU in delivering 5-FU” value ([2]; from literature flux) is listed as 2.2 times.

For `Cn1c(=O)c2c(ncn2CO)n(C)c1=O` [7-(hydroxymethyl)theophylline], the flux ([3]; not told) is given as 11.1×10^-2 mg/cm^2.hr and the “times more effective than theophylline in delivering theophylline” value [4] is given as “about 6.5 times”.

In the case of `CCCC(=O)OCn1cnc2c1c(=O)n(C)c(=O)n2C` [7-butyryloxymethyl)theophylline], the flux ([3]; previous study (Sloan et al), IPM) is listed as 7.25×10^-2 mg/cm^2.hr and the “times more effective than theophylline in delivering theophylline” value [4] is listed as 4.2 times.

Work on `c1nc(NCN2CCOCC2)c2ncn(CN3CCOCC3)c2n1` [Compound 1d, Bis-N^6,9-(4'-morpholinyl)methyladenine] yielded a half-life at 100 µM [5] of about 30 min.

`c1nc(NCN2CCCCC2)c2ncn(CN3CCCCC3)c2n1` [Compound 1e, Bis-N^6,9-(1'-piperidinyl)methyladenine] showed a half-life at 100 µM [5] of about 5 min.

`O=c1nc(NCN2CCOCC2)ccn1CN1CCOCC1` [Compound 2d, Bis-N^4,1-(4'-morpholinyl)methylcytosine] gave a half-life at 100 µM [5] of about 180 min.

With `Nc1nc(=O)[nH]cc1F` [Compound 5-FC, 5-fluorocytosine] the solubility ([6]; distilled water (pH 5.5), approximate, decomposing) was 7000 µg/mL and 50000 µM, the solubility at 48 h [6] was 39 µM and the solubility at 48 h ([6]; ±SD) was 5 µg/mL. For the same compound, the solubility ([7]; 1-octanol) was 0.42 mg/mL (≈ 3.25 mM), the solubility ([7]; dmf) was 3.52 mg/mL (≈ 27.3 mM) and the solubility ([7]; ethylene glycol) was 20 mg/mL (≈ 155 mM). The solubility ([7]; ethylene glycol:formamide (1:1)) was 17.5 mg/mL (≈ 135 mM), the solubility ([7]; ethylene glycol:formamide (4:1)) was 17.9 mg/mL (≈ 139 mM) and the solubility ([7]; formamide) was 13.7 mg/mL (≈ 106 mM). For the same compound, the solubility ([7]; ipm) was 0.0045 mg/mL (≈ 0.0349 mM), the solubility ([7]; pg) was 10.8 mg/mL (≈ 83.7 mM) and the “aqueous solubility, literature value” [8] was 0.12 M (≈ 15.5 mg/mL).

For `Nc1nc(=O)n([C@H]2C[C@H](O)[C@@H](CO)O2)cc1I` [Compound 5-IDC, 5-iodo-2'-deoxycytidine], the “Solubility, IPM” value [9] was 0 M(× ^5), the “Solubility, IPM” value ([9]; ±SD) was 0 mg/ml(× 10^2) and the solubility [9] was < 1000 µg/mL and < 2800 µM. The solubility ([10]; 1-octanol, read-out: Solubility of 5-IDC, mole fraction) was 0.96 mM, the solubility ([10]; 1-propanol, read-out: Solubility of 5-IDC, mole fraction) was 6.09 mM and the “Solubility of 5-IDC, mole fraction” value ([10]; IPM) was 0 mole fraction (× 10^3). For the same compound, the solubility ([10]; eg, read-out: Solubility of 5-IDC, mole fraction) was 89.2 mM, the solubility ([10]; ethylene glycol, EG, ±SD, read-out: Solubility of 5-IDC) was 31.5 mg/mL and the solubility ([10]; formamide, For, ±SD, read-out: Solubility of 5-IDC) was 56.9 mg/mL. It also gave a solubility ([10]; formamide, read-out: Solubility of 5-IDC, mole fraction) of 161 mM, a solubility ([10]; 1-octanol, ±SD, read-out: Solubility of 5-IDC) of 0.34 mg/mL and a solubility ([10]; 1-propanol, ±SD, read-out: Solubility of 5-IDC) of 2.15 mg/mL. For the same compound, the solubility ([10]; pg, read-out: Solubility of 5-IDC, mole fraction) was 55.7 mM, the solubility ([10]; propylene glycol, PG, ±SD, read-out: Solubility of 5-IDC) was 19.7 mg/mL and the “increase of flux of theophylline from PG” value ([11]; after 5-IDC) was 1.3 times. The X-intercept ([11]; first application in IPM) was 0.6 h, the “Flux of theophylline from PG after first application” value ([11]; first application in IPM, Th/PG 0.4 M, ±SD) was 246 (17) mg/cm^2 /h × 10^3 and the “X-intercept, initial phase” value (IPM) was 5.0 h. The “X-intercept, steady-state” value (IPM) was 14.0 h, the “duration of initial phase” value (IPM) was 19 h and the “duration of steady-state delivery” value (IPM) was 11 h. For the same compound, the “conversion of 5-IDC to 5-IDU” value (diffusion cells, HPLC) was “no conversion of 5-IDC to 5IDU was detected”.

In the case of `CCN(CC)CNc1ccn(CN(CC)CC)c(=O)n1` [Cytosine (Et), Bis-N^4,1-(diethylamino)methylcytosine], the “Half-life of hydrolysis, cytosine derivatives” value [12] is reported as 0.26(0.00) min.

In the case of `Cn1c(=O)c2[nH]cnc2n(C)c1=O` [I, Theophylline], the flux ([3]; not told) is given as 1.72±0.13×10^-2 mg/cm^2.hr and the “flux for Th/PG, baseline” value [13] is given as 1.41±0.09×10^-3 mg/cm2 /h.

For `O=c1[nH]cc(F)c(=O)[nH]1` [VII, 5-Fluorouracil], the lag time ([1]; PG, calculated from literature data (Mollgaard et al)) is given as 17 h, the pKa [14] is given as 13.0 and the “theoretical 24 hr value for 5-FU diffused” value ([2]; PG, 24 hr, 4.9 cm^2, calculated from literature flux and lag) is given as 0.015 mg. For the same compound, the solubility ([15]; isopropyl myristate, organic solvent or mixture, IPM) was 0.0044 mg/mL (≈ 0.0338 mM), the solubility ([15]; propylene glycol, organic solvent or mixture, PG) was 15.1 mg/mL (≈ 116 mM) and the solubility ([15]; water) was 26.2 mg/mL (≈ 201 mM).

With `O=c1nc(NCN2CCOCC2)c(I)cn1[C@H]1C[C@H](O)[C@@H](CO)O1` [XXIIIb, N^4-(1"-morpholinyl)methyl-5-iodo-2'-deoxycytidine hydrate] the solubility at 48 h [9] was 29 µM, the solubility at 48 h ([9]; ±SD) was 13 µg/mL and the solubility [9] was 20000 µg/mL and 44000 µM. It also gave a half-life [16] of 12.8 ± 0.6 min.

In the case of `O=c1nc(NCN2CCCCC2)c(I)cn1[C@H]1C[C@H](O)[C@@H](CO)O1` [XXIIb, N^4-(1"-piperidinyl)methyl-5-iodo-2'-deoxycytidine hydrate], the “Solubility, IPM” value ([9]; ±SD, 2880 min, hydrate) is reported as 1.6(0.5) mg/ml(× 10^2) and the half-life [16] is reported as 0.89 ± 0.06 min.
